Reference: patent US10130616B2, “Securinine and norsecurinine analogue compounds for the treatment of myeloid disorders” (Case Western Reserve University, priority 2013, dated 2018)
pEC50, pIC50: −log10 of the molar value. Like-named read-outs stand apart in the source and are kept apart here.

Key:
HL-60 cells = test: Growth of HL-60 cells (IC50); assay type: cell-based, human; settings: for pIC50: value bracketed between tested concentrations
HL-60 leukemic cells = test: Nitroblue Tetrazolium (NBT) reduction assay, differentiation of HL-60 leukemic cells; assay type: cell-based, human; settings: Homo sapiens
Description: In an aspect of the present disclosure, the compounds of the disclosure can be identified using a novel high-throughput screen that is biased to identify agents that have both a high potency and low toxicity in a myeloid disorder disease model, such as an animal or cell model. In some embodiments, the high-throughput screen measures the differentiation of HL-60 leukemic cells using a quantitative nitroblue tetrazolium (NBT) reduction assay. Screening HL-60 cells, human promyelocytic cells, is advantageous as they have been used extensively as a cell line to study myeloid differentiation. Though promyelocytic cells, HL-60 cells were derived from a patient with acute myeloblastic leukemia with maturation, FAB-M2.
This technique has also been widely exploited in HL-60 cells to analyze myelomonocytic differentiation.
The NBT screen works due to changes in the oxidoreductases during differentiation that lead to increases in rates of NBT reduction. NBT is reduced due to the production of superoxide that is catalyzed by an NADPH oxidase. […] NBT is reduced by superoxide from a soluble yellow compound to insoluble blue formazan granules whose formation can be monitored spectrophotometrically at 560 nm as the unreduced dye has minimal absorbance at this wavelength. A quantitative NBT reduction assay is ideal for this type of screen as it is simple, sensitive, quantitative, requires minimal cells, has been proven to have low well to well variability, and the amount of reduced NBT is proportional to the number of cells reducing the dye as well as the amount reduced by each cell.
To discover novel AML differentiation-inducing compounds a rapid high-throughput screen (HTS) was developed and optimized. The screen was designed to be biased to identify compounds that, unlike the majority of known differentiation-inducing agents, have both high potency and low toxicity. The screen measured the differentiation of HL-60 leukemic cells using a quantitative Nitroblue Tetrazolium (NBT) reduction assay, a test that is used extensively as a measure of functional myelomonocytic differentiation. The basis for the screen is unreduced NBT exists as a yellow soluble dye. Differentiated leukemic cells are capable of producing a respiratory burst that can reduce NBT into a blue insoluble compound that can be measured spectrophotometrically. This forward chemical genetics approach allowed the discovery of novel compounds that can act on targets not previously known to be “drugable.” As only live cells can reduce NBT, the screen is biased in identifying relatively nontoxic compounds.
To perform the screen, duplicate plates of HL-60 cells were cultured at a density of 5×10^4 cells/mL with 10 μM of each compound in 96 well plates for 5 days. To determine the relative capability for a compound to induce differentiation compared to known potent inducers, each plate destined for the NBT reduction assay included wells with 0.1% DMSO (vehicle control) and 1 μM ATRA. This approach eliminates any slight day to day variation in NBT reduction values and allows the discovery of compounds with similar or greater efficacy to ATRA. Differentiation was determined in the 96 well plates by incubating the cells with 1 mg/mL of NBT and 200 ng/mL of PMA as the stimulant for the respiratory burst for 35 minutes at 37° C. The reaction was then stopped with HCl and the formazan solubilized with DMSO. Finally, the reaction mixture was read spectrophotometrically at 560 nm in a plate reader.
The securinine and norsecurinine analogues were tested and evaluated on their abilities to affect differentiation and growth of HL-60 cells (Table 1).

[1] = Homo sapiens, HL-60, HL-60 cells, read-out: HL-60, IC50
[2] = HL-60 cells, value bracketed between tested concentrations, read-out: HL-60, Dif50

Row | Structure (SMILES) | pIC50 (HL-60 cells; [1]) | pEC50 (HL-60 leukemic cells; [2]) | further results
1 | COC(OC)[C@H]1CC[C@H]2N1[C@@H]1C=C(I)C3=CC(=O)O[C@@]32C1 [Compound 1] |  |  | 100% Death (HL-60 cells; HL-60 cells, concentration giving 100% death): 100% Death <2.5
2 | COC(OC)[C@H]1CC[C@H]2N1[C@@H]1C=CC3=CC(=O)O[C@@]32C1 [Compound 2] |  |  | pEC50 (HL-60 leukemic cells; HL-60, read-out: HL-60, Dif50): 5.30 to 5.49
3 | CCCCC1=C[C@@H]2C[C@@]3(OC(=O)C=C13)[C@H]1CCCCN21 [Compound 4] | 5.40 to 5.52 |  | 
4 | CC(C)(C)c1ccc(C2=C[C@@H]3C[C@@]4(OC(=O)C=C24)[C@H]2CCCCN32)cc1 [Compound 5] | 4.52 to 4.70 |  | 
5 | O=C1C=C2C(c3cc(C(F)(F)F)cc(C(F)(F)F)c3)=C[C@@H]3C[C@@]2(O1)[C@H]1CCCCN31 [Compound 6] | 4.70 to 4.82 |  | 
6 | O=C1C=C2C(c3cc(Br)cc(Br)c3)=C[C@@H]3C[C@@]2(O1)[C@H]1CCCCN31 [Compound 7] | 4.70 to 4.82 |  | 
7 | C[N+]12CCCC[C@@H]1[C@]13C[C@H]2C=CC1=CC(=O)O3 (stereo partly drawn) [Compound 8] |  | < 4.52 | 
8 | C[N+]12CCCC[C@@H]1[C@]13C[C@H]2C=C(I)C1=CC(=O)O3 (stereo partly drawn) [Compound 9] | 5.12 to 5.30 |  | 
9 | O=C1C=C2C(I)=C[C@@H]3C[C@@]2(O1)[C@H]1CCCCN31 [Compound 13] |  |  | pIC50 (HL-60 cells; read-out: HL-60, IC50, HL-60 cells): > 5.60
10 | O=C1C=C2C(I)=C[C@@H]3C[C@@]2(O1)[C@H]1CCCCN31 [Compound 14] |  |  | pEC50 (HL-60 leukemic cells; HL-60, read-out: HL-60, Dif50): 6.12 to 6.30
11 | CC(C)CC#CC1=C[C@@H]2C[C@@]3(OC(=O)C=C13)[C@H]1CCCCN21 [Compound 16] | 5.60 to 5.90 |  | 
12 | O=C1C=C2C(C#CC3CCCC3)=C[C@@H]3C[C@@]2(O1)[C@H]1CCCCN31 [Compound 19] | 6.20 to 6.51 |  | 
13 | CCCCC#CC1=C[C@@H]2C[C@@]3(OC(=O)C=C13)[C@H]1CCCCN21 [Compound 20] | 5.60 |  | 
14 | CC(C)(C)C#CC1=C[C@@H]2C[C@@]3(OC(=O)C=C13)[C@H]1CCCCN21 [Compound 23] | 5.60 to 5.90 |  | 
15 | O=C1C=C2C(C#CCC3CCCC3)=C[C@@H]3C[C@@]2(O1)[C@H]1CCCCN31 [Compound 24] | 5.60 to 5.90 |  | 
16 | O=C1C=C2C(C#CC3CC3)=C[C@@H]3C[C@@]2(O1)[C@H]1CCCCN31 [Compound 25] | 5.60 to 5.90 |  | 
17 | CC(C)[Si](OCC#CC1=C[C@@H]2C[C@@]3(OC(=O)C=C13)[C@H]1CCCCN21)(C(C)C)C(C)C [Compound 27] |  |  | pIC50 (HL-60 cells; Homo sapiens, HL-60, read-out: HL-60, IC50, HL-60 cells): 5.90 to 6.20
18 | O=C1C=C2C(C#Cc3ccc(F)cc3)=C[C@@H]3C[C@@]2(O1)[C@H]1CCCCN31 [Compound 30] | 6.20 to 6.51 |  | 
19 | CC(C)(C)c1ccc(C#CC2=C[C@@H]3C[C@@]4(OC(=O)C=C24)[C@H]2CCCCN32)cc1 [Compound 32] | 5.90 |  | 
20 | O=C1C=C2C(C#CCOc3ccccc3)=C[C@@H]3C[C@@]2(O1)[C@H]1CCCCN31 [Compound 33] | 5.90 to 6.20 |  | 
21 | O=C1C=C2C(C#CCOCc3ccccc3)=C[C@@H]3C[C@@]2(O1)[C@H]1CCCCN31 [Compound 34] | 5.60 to 5.90 |  | 
22 | O=C1C=C2C(C#Cc3cc(F)cc(F)c3)=C[C@@H]3C[C@@]2(O1)[C@H]1CCCCN31 [Compound 37] | 5.00 to 5.30 |  | 
23 | Cc1ccccc1C#CC1=C[C@@H]2C[C@@]3(OC(=O)C=C13)[C@H]1CCCCN21 [Compound 38] | 5.60 to 5.90 |  | 
24 | CCOC(C#CC1=C[C@@H]2C[C@@]3(OC(=O)C=C13)[C@H]1CCCCN21)OCC [Compound 44] | 5.30 to 5.60 |  | 
25 | CC(C)(C)OCC#CC1=C[C@@H]2C[C@@]3(OC(=O)C=C13)[C@H]1CCCCN21 [Compound 45] | 5.60 to 5.90 |  | 
26 | CCc1ccc(C#CC2=C[C@@H]3C[C@@]4(OC(=O)C=C24)[C@H]2CCCCN32)cc1 [Compound 49] | 6.20 to 6.51 |  | 
27 | CCCCc1ccc(C#CC2=C[C@@H]3C[C@@]4(OC(=O)C=C24)[C@H]2CCCCN32)cc1 [Compound 50] | 5.90 to 6.20 |  | 

Row | Structure (SMILES) | pIC50 (HL-60 cells; [1]) | pEC50 (HL-60 leukemic cells; [2]) | further results
28 | O=C1C=C2C(C#Cc3ccc(-c4ccccc4)cc3)=C[C@@H]3C[C@@]2(O1)[C@H]1CCCCN31 [Compound 51] | > 7.15 |  | 
29 | O=C1C=C2C(C#Cc3cccs3)=C[C@@H]3C[C@@]2(O1)[C@H]1CCCCN31 [Compound 52] | 6.81 to 7.15 |  | 
30 | Nc1ccc(C#CC2=C[C@@H]3C[C@@]4(OC(=O)C=C24)[C@H]2CCCCN32)cc1 [Compound 53] |  | 6.51 to 6.81 | 
31 | [N-]=[N+]=Nc1ccc(C#CC2=C[C@@H]3C[C@@]4(OC(=O)C=C24)[C@H]2CCCCN32)cc1 [Compound 54] | 6.51 |  | 
32 | Nc1ccc(C#CC2=C[C@@H]3C[C@@]4(OC(=O)C=C24)[C@H]2CCCCN32)cc1 [Compound 63] | 6.81 |  | 
33 | O=C1C=C2CC(SC34CC5CC(CC(C5)C3)C4)[C@@H]3C[C@@]2(O1)[C@H]1CCCCN31 (stereo partly drawn) [Compound 66] |  | < 4.52 | 
34 | O=C1C=C2CC(SCC(F)(F)F)[C@@H]3C[C@@]2(O1)[C@H]1CCCCN31 (stereo partly drawn) [Compound 67] |  | 4.52 to 4.70 | 
35 | O=C1C=C2CC(N3CCC(F)(F)C3)[C@@H]3C[C@@]2(O1)[C@H]1CCCCN31 (stereo partly drawn) [Compound 68] |  | < 4.52 | 
36 | O=C1C=C2CC(SCc3cccs3)[C@@H]3C[C@@]2(O1)[C@H]1CCCCN31 (stereo partly drawn) [Compound 69] |  | 4.52 to 4.70 | 
37 | O=C1C=C2CC(SCC3CCCCCC3)[C@@H]3C[C@@]2(O1)[C@H]1CCCCN31 (stereo partly drawn) [Compound 70] |  |  | pEC50 (HL-60 leukemic cells; HL-60, read-out: HL-60, Dif50): 4.82 to 5.00
38 | CCCCCCCSC1CC2=CC(=O)O[C@@]23C[C@@H]1N1CCCC[C@@H]13 (stereo partly drawn) [Compound 71] |  |  | pEC50 (HL-60 leukemic cells; HL-60, read-out: HL-60, Dif50): 4.52 to 4.70
39 | CCCCSC1CC2=CC(=O)O[C@@]23C[C@@H]1N1CCCC[C@@H]13 (stereo partly drawn) [Compound 72] |  | 4.52 to 4.70 | 
40 | CCN(CC)CCSC1CC2=CC(=O)O[C@@]23C[C@@H]1N1CCCC[C@@H]13 (stereo partly drawn) [Compound 73] |  | 4.82 to 5.00 | 
41 | CCCSC1CC2=CC(=O)O[C@@]23C[C@@H]1N1CCCC[C@@H]13 (stereo partly drawn) [Compound 74] |  | 4.70 to 4.82 | 
42 | CC(C)SC1CC2=CC(=O)O[C@@]23C[C@@H]1N1CCCC[C@@H]13 (stereo partly drawn) [Compound 75] |  | 4.70 to 4.82 | 
43 | NCCSC1CC2=CC(=O)O[C@@]23C[C@@H]1N1CCCC[C@@H]13 (stereo partly drawn) [Compound 77] |  | 4.82 to 5.00 | 
44 | O=C(CCCC[C@@H]1SC[C@@H]2NC(=O)N[C@@H]21)NCCS[C@H]1CC2=CC(=O)O[C@@]23C[C@@H]1N1CCCC[C@@H]13 [Compound 78] |  | 4.82 to 5.00 | 
45 | O=C1C=C2CC(NCC3CC3)[C@@H]3C[C@@]2(O1)[C@H]1CCCCN31 (stereo partly drawn) [Compound 79] |  | 4.82 to 5.00 | 
46 | O=C1C=C2CC(NC3CC3)[C@@H]3C[C@@]2(O1)[C@H]1CCCCN31 (stereo partly drawn) [Compound 80] |  | 4.52 to 4.70 | 
47 | O=C1C=C2CC(NC3CCCC3)[C@@H]3C[C@@]2(O1)[C@H]1CCCCN31 (stereo partly drawn) [Compound 81] |  | 4.82 to 5.00 | 
48 | O=C1C=C2CC(NC3CCCCC3)[C@@H]3C[C@@]2(O1)[C@H]1CCCCN31 (stereo partly drawn) [Compound 82] |  | 4.70 to 4.82 | 
49 | O=C1C=C2CC(NC3CCCCCC3)[C@@H]3C[C@@]2(O1)[C@H]1CCCCN31 (stereo partly drawn) [Compound 83] |  | < 4.52 | 
50 | O=C1C=C2CC(NC3CCCCCCC3)[C@@H]3C[C@@]2(O1)[C@H]1CCCCN31 (stereo partly drawn) [Compound 84] |  | < 4.52 | 
51 | O=C1C=C2CC(NC3CC(O)C3)[C@@H]3C[C@@]2(O1)[C@H]1CCCCN31 (stereo partly drawn) [Compound 85] |  | 4.82 to 5.00 | 
52 | COc1ccc(CN[C@H]2CC3=CC(=O)O[C@@]34C[C@@H]2N2CCCC[C@@H]24)cc1 [Compound 86] |  | 4.70 to 4.82 | 
53 | O=C1C=C2C[C@H](S(=O)(=O)c3ccccc3)[C@@H]3C[C@@]2(O1)[C@H]1CCCCN31 [Compound 88] |  | 5.12 to 5.30 | 
54 | O=C1C=C2CC(n3cnc4ccccc43)[C@@H]3C[C@@]2(O1)[C@H]1CCCCN31 (stereo partly drawn) [Compound 91] |  | < 4.52 | 
